Results published in US20230295109A1, “PYRIDINONE COMPOUNDS FOR THE TREATMENT OF AUTOIMMUNE DISEASE” (F. Hoffmann-La Roche AG, priority 2020, published 2023).

Experiment: Parallel Artificial Membrane Permeability Assay (PAMPA)
Format: in vitro ADME
Conditions: for Membrane Retention / Papp at 4 h: PAMPA; for Membrane Retention: pH 7.40, 4 hours; for Papp at 4 h: pH 7.4, pH 7.40, room temperature, read-out: PAMPA Pe; for PAMPA category: class from Pe and membrane retention
Protocol: PAMPA (Parallel Artificial Membrane Permeability Assay) is a first-line permeability screen for drug candidates. This assay mimics the transcellular absorption conditions using an artificial phospholipid membrane and generates a permeability value that can be used for compound ranking and optimization as well as input parameters for in silico models to predict intestinal absorption.
Permeation experiments are carried out in hydrophobic PVDF 96-well microtiter filter plates (MultiScreen Filter Plate, Millipore, #MAIPN4550). Each well is coated with PVDF membrane, which is prepared with 5 µL Dodecane (Sigma, D221104) that contains 1% lecithin (Sigma, P3556-1G).
The typical PAMPA experimental protocol is as follows: The donor plate is placed on a Teflon acceptor plate that has been pre-filled with 150 µL of 100 mM PBS buffer (2.6 g KH2PO4 and 18.5 g K2HPO4.3H2O are dissolved in about 1000 mL of ultra-pure water and mixed thoroughly. The pH is adjusted to 7.40 ± 0.05, using either 1 M sodium hydroxide or 1 M hydrochloric acid.) containing 5% DMSO. The filter on the bottom of each acceptor well is filled with 300 µL of 100 mM PBS buffer (2.6 g KH2PO4 and 18.5 g K2HPO4.3H2O are dissolved in about 1000 mL of ultra-pure water, mixed thoroughly. The pH was adjusted to 7.40 ± 0.05, using either 1 M sodium hydroxide or 1 M hydrochloric acid.). The resulting sandwich is incubated at room temperature under constant shaking (300 rpm) for 4 hours. The sandwich is then disassembled. Before incubation, spike 20 µL dosing solution and mix with 250 µL PBS and 130 µL quench solution (acetonitrile) as T0 sample. After incubation, collect 270 µL solutions from acceptor chamber, followed by the addition of 130 µL acetonitrile. Collect 20 µL solution from donor chamber and add 250 µL PBS and 130 µL acetonitrile. The concentration of compound in all samples are determined by LC-MS/MS and the equations for determining the permeability (Pe, 10^-6 cm/s ) are as follows.
VD is the volume of the donor well; VR is the volume of the acceptor well; Area is the active surface area of membrane; Time is the incubation time (14,400 s in this assay); CR and CD are the concentrations of compound in acceptor and donor solutions, respectively, at the completion of the assay; C0 is the concentration of compound in donor solution before incubation.
The main readout of the PAMPA assay is the permeability value Pe expressed in 10^-6 cm/s. Secondary readouts determined are the amounts of compound in the donor and acceptor compartments as well as compound retention in the membrane. Depending on the permeation rate and the membrane retention, compounds are classified as “low” (Pe < 0.2 and membrane retention <20%) or “medium & high” (Pe >= 0.2; or Pe < 0.2 and membrane retention >= 20%). Each sample is measured in triplicate; the standard deviation is determined for the permeation constant Pe.

Row | SMILES | Membrane Retention | Papp at 4 h | PAMPA category
1 | CCc1nc(N2CCN(Cc3cnc(N4CC5(CNCCO5)C4)nc3)CC2)ccc1-c1cc(C)c(=O)n(C)c1 [Example 1, 5-[2-ethyl-6-[4-[[2-(5-oxa-2,8-diazaspiro[3.5]nonan-2-yl)pyrimidin-5-yl]methyl]piperazin-1-yl]-3-pyridyl]-1,3-dimethyl-pyridin-2-one] | -11.520% | 0.57 ×10⁻⁶ cm/s | medium & high (“medium & high” (Pe >= 0.2; or Pe < 0.2 and membrane retention >= 20%))
2 | CCc1nc(N2CCN(Cc3ccc(N4CC5(CNCCO5)C4)nc3)CC2)ccc1-c1cc(C)c(=O)n(C)c1 [Example 2, 5-[2-ethyl-6-[4-[[6-(5-oxa-2,8-diazaspiro[3.5]nonan-2-yl)-3 pyridyl]methyl]piperazin-1-yl]-3-pyridyl]-1,3-dimethyl-pyridin-2-one] | 10.600% | 0.49 ×10⁻⁶ cm/s | medium & high (“medium & high” (Pe >= 0.2; or Pe < 0.2 and membrane retention >= 20%))
3 | CCc1nc(N2CCN(Cc3cnc(N4CC(C)(N)C4)nc3)CC2)ccc1-c1cc(C)c(=O)n(C)c1 [Example 3, 5-[6-[4-[[2-(3-amino-3-methyl-azetidin-1-yl)pyrimidin-5-yl]methyl]piperazin-1-yl]-2-ethyl-3-pyridyl]-1,3-dimethyl-pyridin-2-one] | -1.260% | 0.53 ×10⁻⁶ cm/s | medium & high (“medium & high” (Pe >= 0.2; or Pe < 0.2 and membrane retention >= 20%))
4 | CCc1nc(N2CCN(Cc3cnc(N4CCOC[C@@H](N)C4)nc3)CC2)ccc1-c1cc(C)c(=O)n(C)c1 [Example 4, 5-[6-[4-[[2-[(6S)-6-amino-1,4-oxazepan-4-yl]pyrimidin-5-yl]methyl]piperazin-1-yl]-2-ethyl-3-pyridyl]-1,3-dimethyl-pyridin-2-one] | 15.690% | 0.75 ×10⁻⁶ cm/s | medium & high (“medium & high” (Pe >= 0.2; or Pe < 0.2 and membrane retention >= 20%))
5 | CCc1nc(N2CCN(Cc3ccc(N4CCNCC4)cc3)CC2)ccc1-c1cc(C)c(=O)n(C)c1 [Example 5, 5-[2-ethyl-6-[4-[(4-piperazin-1-ylphenyl)methyl]piperazin-1-yl]-3-pyridyl]-1,3-dimethyl-pyridin-2-one] | 18.250% | 1.5 ×10⁻⁶ cm/s | medium & high (“medium & high” (Pe >= 0.2; or Pe < 0.2 and membrane retention >= 20%))
6 | Cc1cc(-c2ccc(N3CCN(Cc4cnc(N5CC6(CNCCO6)C5)nc4)CC3)nc2C(C)C)cn(C)c1=O [Example 6, 5-[2-isopropyl-6-[4-[[2-(5-oxa-2,8-diazaspiro[3.5]nonan-2-yl)pyrimidin-5-yl]methyl]piperazin-1-yl]-3-pyridyl]-1,3-dimethyl-pyridin-2-one] | 19.190% | 0.65 ×10⁻⁶ cm/s | medium & high (“medium & high” (Pe >= 0.2; or Pe < 0.2 and membrane retention >= 20%))
7 | Cc1cc(-c2ccc(N3CCN(Cc4cnc(N5CC(C)(N)C5)nc4)CC3)nc2C(C)C)cn(C)c1=O [Example 10, 5-[6-[4-[[2-(3-amino-3-methyl-azetidin-1-yl)pyrimidin-5-yl]methyl]piperazin-1-yl]-2-isopropyl-3-pyridyl]-1,3-dimethyl-pyridin-2-one] | 7.250% | 0.6 ×10⁻⁶ cm/s | medium & high (“medium & high” (Pe >= 0.2; or Pe < 0.2 and membrane retention >= 20%))
8 | Cc1cc(-c2ccc(N3CCN(Cc4ccc(N5CCNCC5)cc4)CC3)nc2C(C)C)cn(C)c1=O [Example 13, 5-[2-isopropyl-6-[4-[(4-piperazin-1-ylphenyl)methyl]piperazin-1-yl]-3-pyridyl]-1,3-dimethyl-pyridin-2-one] | 56.550% | 0.46 ×10⁻⁶ cm/s | medium & high (“medium & high” (Pe >= 0.2; or Pe < 0.2 and membrane retention >= 20%))
9 | Cc1cc(-c2ccc(N3CCN(c4ccc5c(n4)CCNC5)CC3)nc2C(C)C)cn(C)c1=O [Example 15, 5-[2-isopropyl-6-[4-(5,6,7,8-tetrahydro-1,6-naphthyridin-2-yl)piperazin-1-yl]-3-pyridyl]-1,3-dimethyl-pyridin-2-one] | 27.680% | 0.23 ×10⁻⁶ cm/s | medium & high (“medium & high” (Pe >= 0.2; or Pe < 0.2 and membrane retention >= 20%))
10 | Cc1cc(-c2ccc(N3CCN4CCN(c5ccc(N6CCNCC6)nc5)CC4C3)nc2C(C)C)cn(C)c1=O (stereo not drawn) [Example 16, 5-[2-isopropyl-6-[8-(6-piperazin-1-yl-3-pyridyl)-3,4,6,7,9,9a-hexahydro-1H-pyrazino[1,2-a]pyrazin-2-yl]-3-pyridyl]-1,3-dimethyl-pyridin-2-one] | 30.770% | 0.24 ×10⁻⁶ cm/s | medium & high (“medium & high” (Pe >= 0.2; or Pe < 0.2 and membrane retention >= 20%))
11 | Cc1cc(-c2ccc(N3CCN(Cc4ccc(N5CCNCC5)cc4)CC3)nc2C(F)F)cn(C)c1=O [Example 17, 5-[2-(difluoromethyl)-6-[4-[(4-piperazin-1-ylphenyl)methyl]piperazin-1-yl]-3-pyridyl]-1,3-dimethyl-pyridin-2-one] | 50.950% | 1.5 ×10⁻⁶ cm/s | medium & high (“medium & high” (Pe >= 0.2; or Pe < 0.2 and membrane retention >= 20%))
12 | Cc1cc(-c2ccc(N3CCC(N4CCNCC4)CC3)nc2C(C)C)cn(C)c1=O [Example 18, 5-[2-isopropyl-6-(4-piperazin-1-yl-1-piperidyl)-3-pyridyl]-1,3-dimethyl-pyridin-2-one] | 8.650% | 0.74 ×10⁻⁶ cm/s | medium & high (“medium & high” (Pe >= 0.2; or Pe < 0.2 and membrane retention >= 20%))

Further lines, with some results ahead:

Row | Membrane Retention | Papp at 4 h | SMILES | PAMPA category
13 | 2.530% | 0.74 ×10⁻⁶ cm/s | Cc1cc(-c2ccc(N3CCN(Cc4ccc(N5CCNCC5)cn4)CC3)nc2C(C)C)cn(C)c1=O [Example 7, 5-[2-isopropyl-6-[4-[(5-piperazin-1-yl-2-pyridyl)methyl]piperazin-1-yl]-3-pyridyl]-1,3-dimethyl-pyridin-2-one] | medium & high (“medium & high” (Pe >= 0.2; or Pe < 0.2 and membrane retention >= 20%))
14 | 21.370% | 0.95 ×10⁻⁶ cm/s | Cc1cc(-c2ccc(N3CCN(Cc4cnc(N5CCNCC5)cn4)CC3)nc2C(C)C)cn(C)c1=O [Example 8, 5-[2-isopropyl-6-[4-[(5-piperazin-1-ylpyrazin-2-yl)methyl]piperazin-1-yl]-3-pyridyl]-1,3-dimethyl-pyridin-2-one] | medium & high (“medium & high” (Pe >= 0.2; or Pe < 0.2 and membrane retention >= 20%))
15 | 27.230% | 0.78 ×10⁻⁶ cm/s | Cc1cc(-c2ccc(N3CCN(Cc4cnc(N5CCNCC5)nc4)CC3)nc2C(C)C)cn(C)c1=O [Example 9, 5-[2-isopropyl-6-[4-[(2-piperazin-1-ylpyrimidin-5-yl)methyl]piperazin-1-yl]-3-pyridyl]-1,3-dimethyl-pyridin-2-one] | medium & high (“medium & high” (Pe >= 0.2; or Pe < 0.2 and membrane retention >= 20%))
16 | 24.900% | 0.6 ×10⁻⁶ cm/s | Cc1cc(-c2ccc(N3CCN(Cc4ccc(N5CCNCC5)nc4)CC3)nc2C(C)C)cn(C)c1=O [Example 11, 5-[2-isopropyl-6-[4-[(6-piperazin-1-yl-3-pyridyl)methyl]piperazin-1-yl]-3-pyridyl]-1,3-dimethyl-pyridin-2-one] | medium & high (“medium & high” (Pe >= 0.2; or Pe < 0.2 and membrane retention >= 20%))
17 | 15.270% | 0.46 ×10⁻⁶ cm/s | Cc1cc(-c2ccc(N3CCN(Cc4ncc(N5CCNCC5)cn4)CC3)nc2C(C)C)cn(C)c1=O [Example 12, 5-[2-isopropyl-6-[4-[(5-piperazin-1-ylpyrimidin-2-yl)methyl]piperazin-1-yl]-3-pyridyl]-1,3-dimethyl-pyridin-2-one] | medium & high (“medium & high” (Pe >= 0.2; or Pe < 0.2 and membrane retention >= 20%))
18 | 38.020% | 0.54 ×10⁻⁶ cm/s | Cc1cc(-c2ccc(N3CCN(Cc4cccc(N5CCNCC5)c4)CC3)nc2C(C)C)cn(C)c1=O [Example 14, 5-[2-isopropyl-6-[4-[(3-piperazin-1-ylphenyl)methyl]piperazin-1-yl]-3-pyridyl]-1,3-dimethyl-pyridin-2-one] | medium & high (“medium & high” (Pe >= 0.2; or Pe < 0.2 and membrane retention >= 20%))
